# Results published in ChEMBL document CHEMBL1151339, “Antitumor agents from bohemic acid complex, III. The isolation of marcellomycin, musettamycin, rudolphomycin, mimimycin, collinemycin, alcindoromycin, and bohemamine” (J Nat Prod, 1980).
# Assays:
# Mus musculus [1] = assay: Toxicity in BDF1 mouse xenografted with mouse L1210 cells assessed as survival at 6.4 mg/kg, ip after 5 days; assay type: organism-based; design: dose 6.4 mg/kg, route intraperitoneal; conditions: in vivo, 120 h
# B16 [2] = assay: Antitumor activity against mouse B16 cells xenografted in BDF1 mouse assessed as median survival time at 3.2 mg/kg; assay type: functional
# B16 [3] = assay: Antitumor activity against mouse B16 cells xenografted in BDF1 mouse assessed as median survival time at 1.6 mg/kg; assay type: functional
# Enterococcus faecalis = assay: Antibacterial activity against Streptococcus faecalis A20688 by 2-fold tube dilution method; assay type: functional
# Staphylococcus = assay: Antibacterial activity against penicillin resistant Staphylococcus A-9606 by 2-fold tube dilution method; assay type: functional
# Streptococcus pneumoniae = assay: Antibacterial activity against Streptococcus pneumoniae A-9585 by 2-fold tube dilution method; assay type: functional
# Staphylococcus aureus = assay: Antibacterial activity against Staphylococcus aureus A-9497 by 2-fold tube dilution method; assay type: functional
# Escherichia coli = assay: Antibacterial activity against Escherichia coli A20341-1 by 2-fold tube dilution method; assay type: functional
# Klebsiella pneumoniae = assay: Antibacterial activity against Klebsiella pneumoniae A15130 by 2-fold tube dilution method; assay type: functional
# Proteus mirabilis = assay: Antibacterial activity against Proteus mirabilis A-9900 by 2-fold tube dilution method; assay type: functional
# Proteus vulgaris = assay: Antibacterial activity against Proteus vulgaris A21559 by 2-fold tube dilution method; assay type: functional
# Serratia marcescens = assay: Antibacterial activity against Serratia marcescens A20019 by 2-fold tube dilution method; assay type: functional
# Enterobacter cloacae = assay: Antibacterial activity against Enterobacter cloacae A-9659 by 2-fold tube dilution method; assay type: functional
# Candida albicans = assay: Antifungal activity against Candida albicans A15049 by 2-fold tube dilution method; assay type: functional
# Pichia kudriavzevii = assay: Antifungal activity against Candida krusei A15052 by 2-fold tube dilution method; assay type: functional
# Microsporum canis = assay: Antifungal activity against Microsporum canis A-9872 by 2-fold tube dilution method; assay type: functional
# L1210 [4] = assay: Antitumor activity against mouse L1210 cells xenografted in BDF1 mouse assessed as median survival time at 1.6 mg/kg, ip; assay type: functional; conditions: route intraperitoneal
# L1210 [5] = assay: Antitumor activity against mouse L1210 cells xenografted in BDF1 mouse assessed as median survival time at 0.4 mg/kg, ip; assay type: functional; conditions: route intraperitoneal
# L1210 [6] = assay: Antitumor activity against mouse L1210 cells xenografted in BDF1 mouse at 1.6 mg/kg, ip relative to control; assay type: functional; conditions: route intraperitoneal
# L1210 [7] = assay: Antitumor activity against mouse L1210 cells xenografted in BDF1 mouse at 0.8 mg/kg, ip relative to control; assay type: functional; conditions: route intraperitoneal
# L1210 [8] = assay: Antitumor activity against mouse L1210 cells xenografted in BDF1 mouse at 0.4 mg/kg, ip relative to control; assay type: functional; conditions: route intraperitoneal
# L1210 [9] = assay: Antitumor activity against mouse L1210 cells xenografted in BDF1 mouse assessed as change in tumor average weight at 1.6 mg/kg, ip; assay type: functional; conditions: route intraperitoneal
# L1210 [10] = assay: Antitumor activity against mouse L1210 cells xenografted in BDF1 mouse assessed as change in tumor average weight at 0.8 mg/kg, ip; assay type: functional; conditions: route intraperitoneal
# L1210 [11] = assay: Antitumor activity against mouse L1210 cells xenografted in BDF1 mouse assessed as change in tumor average weight at 0.4 mg/kg, ip; assay type: functional; conditions: route intraperitoneal
# Mus musculus [12] = assay: Toxicity in BDF1 mouse xenografted with mouse L1210 cells assessed as survival at 12.8 mg/kg, ip after 5 days; assay type: organism-based; design: dose 12.8 mg/kg, route intraperitoneal; conditions: in vivo, 120 h
# Mus musculus [13] = assay: Toxicity in BDF1 mouse xenografted with mouse B16 cells assessed as survival at 0.1 mg/kg after 5 days; assay type: organism-based; design: dose 0.1 mg/kg
# Mus musculus [14] = assay: Toxicity in BDF1 mouse xenografted with mouse B16 cells assessed as survival at 0.05 mg/kg after 5 days; assay type: organism-based; design: dose 0.05 mg/kg
# Mus musculus [15] = assay: Toxicity in BDF1 mouse xenografted with mouse B16 cells assessed as survival at 0.025 mg/kg after 5 days; assay type: organism-based; design: dose 0.025 mg/kg
# Mus musculus [16] = assay: Toxicity in BDF1 mouse xenografted with mouse L1210 cells assessed as survival at 0.8 mg/kg, ip after 5 days; assay type: organism-based; design: dose 0.8 mg/kg, route intraperitoneal; conditions: in vivo, 120 h
# Mus musculus [17] = assay: Toxicity in BDF1 mouse xenografted with mouse L1210 cells assessed as survival at 0.4 mg/kg, ip after 5 days; assay type: organism-based; design: dose 0.4 mg/kg, route intraperitoneal; conditions: in vivo, 120 h
# B16 [18] = assay: Antitumor activity against mouse B16 cells xenografted in BDF1 mouse assessed as median survival time at 0.2 mg/kg; assay type: functional
# B16 [19] = assay: Antitumor activity against mouse B16 cells xenografted in BDF1 mouse assessed as median survival time at 0.1 mg/kg; assay type: functional
# B16 [20] = assay: Antitumor activity against mouse B16 cells xenografted in BDF1 mouse assessed as median survival time at 0.025 mg/kg; assay type: functional
# B16 [21] = assay: Antitumor activity against mouse B16 cells xenografted in BDF1 mouse at 3.2 mg/kg relative to control; assay type: functional
# B16 [22] = assay: Antitumor activity against mouse B16 cells xenografted in BDF1 mouse at 1.6 mg/kg relative to control; assay type: functional
# B16 [23] = assay: Antitumor activity against mouse B16 cells xenografted in BDF1 mouse at 0.8 mg/kg relative to control; assay type: functional
# B16 [24] = assay: Antitumor activity against mouse B16 cells xenografted in BDF1 mouse at 0.2 mg/kg relative to control; assay type: functional
# B16 [25] = assay: Antitumor activity against mouse B16 cells xenografted in BDF1 mouse at 0.1 mg/kg relative to control; assay type: functional
# B16 [26] = assay: Antitumor activity against mouse B16 cells xenografted in BDF1 mouse at 0.05 mg/kg relative to control; assay type: functional
# B16 [27] = assay: Antitumor activity against mouse B16 cells xenografted in BDF1 mouse at 0.025 mg/kg relative to control; assay type: functional
# B16 [28] = assay: Antitumor activity against mouse B16 cells xenografted in BDF1 mouse assessed as change in tumor average weight at 3.2 mg/kg; assay type: functional
# B16 [29] = assay: Antitumor activity against mouse B16 cells xenografted in BDF1 mouse assessed as change in tumor average weight at 1.6 mg/kg; assay type: functional
# B16 [30] = assay: Antitumor activity against mouse B16 cells xenografted in BDF1 mouse assessed as change in tumor average weight at 0.8 mg/kg; assay type: functional
# B16 [31] = assay: Antitumor activity against mouse B16 cells xenografted in BDF1 mouse assessed as change in tumor average weight at 0.4 mg/kg; assay type: functional
# B16 [32] = assay: Antitumor activity against mouse B16 cells xenografted in BDF1 mouse assessed as change in tumor average weight at 0.2 mg/kg; assay type: functional
# B16 [33] = assay: Antitumor activity against mouse B16 cells xenografted in BDF1 mouse assessed as change in tumor average weight at 0.1 mg/kg; assay type: functional
# B16 [34] = assay: Antitumor activity against mouse B16 cells xenografted in BDF1 mouse assessed as change in tumor average weight at 0.05 mg/kg; assay type: functional
# B16 [35] = assay: Antitumor activity against mouse B16 cells xenografted in BDF1 mouse assessed as change in tumor average weight at 0.025 mg/kg; assay type: functional
# Mus musculus [36] = assay: Toxicity in BDF1 mouse xenografted with mouse B16 cells assessed as survival at 1.6 mg/kg after 5 days; assay type: organism-based; design: dose 1.6 mg/kg
# Mus musculus [37] = assay: Toxicity in BDF1 mouse xenografted with mouse B16 cells assessed as survival at 0.4 mg/kg after 5 days; assay type: organism-based; design: dose 0.4 mg/kg
# Mus musculus [38] = assay: Toxicity in BDF1 mouse xenografted with mouse B16 cells assessed as survival at 0.2 mg/kg after 5 days; assay type: organism-based; design: dose 0.2 mg/kg
smiles,measurement,setting,value
CC[C@@]1(O)C[C@H](O[C@H]2C[C@H](N(C)C)[C@H](O[C@H]3C[C@H](O)[C@H](O[C@@H]4O[C@@H](C)C(=O)C=C4N)[C@@H](C)O3)[C@@H](C)O2)c2c(cc3c(c2O)C(=O)c2c(O)ccc(O)c2C3=O)[C@H]1C(=O)OC [RUDOLPHOMYCIN],Activity,Mus musculus [1],Toxic
same,Activity,B16 [2],23 days
same,Activity,B16 [3],32 days
same,MIC,Enterococcus faecalis,1 µg/mL
same,MIC,Staphylococcus,32 µg/mL
same,MIC,Streptococcus pneumoniae,0.06 µg/mL
same,MIC,Staphylococcus aureus,1 µg/mL
same,MIC,Escherichia coli,> 125 µg/mL
same,MIC,Klebsiella pneumoniae,> 125 µg/mL
same,MIC,Proteus mirabilis,> 125 µg/mL
same,MIC,Proteus vulgaris,> 125 µg/mL
same,MIC,Serratia marcescens,> 125 µg/mL
same,MIC,Enterobacter cloacae,> 125 µg/mL
same,MIC,Candida albicans,> 16 µg/mL
same,MIC,Pichia kudriavzevii,> 16 µg/mL
same,MIC,Microsporum canis,> 16 µg/mL
same,Activity,L1210 [4],10 days
same,Activity,L1210 [5],8 days
same,T/C,L1210 [6],133%
same,T/C,L1210 [7],120%
same,T/C,L1210 [8],107%
same,Activity,L1210 [9],-1.2 g
same,Activity,L1210 [10],-1.6 g
same,Activity,L1210 [11],0.9 g
same,Activity,Mus musculus [12],Toxic
same,AC50,Mus musculus [13],Non-toxic
same,AC50,Mus musculus [14],Non-toxic
same,AC50,Mus musculus [15],Non-toxic
same,Activity,Mus musculus [16],Non-toxic
same,Activity,Mus musculus [17],Non-toxic
same,Activity,B16 [18],26 days
same,Activity,B16 [19],27.5 days
same,Activity,B16 [20],22.5 days
same,T/C,B16 [21],115%
same,T/C,B16 [22],160%
same,T/C,B16 [23],145%
same,T/C,B16 [24],130%
same,T/C,B16 [25],138%
same,T/C,B16 [26],110%
same,T/C,B16 [27],113%
same,Activity,B16 [28],-0.3 g
same,Activity,B16 [29],-2.5 g
same,Activity,B16 [30],-0.2 g
same,Activity,B16 [31],-0.8 g
same,Activity,B16 [32],-1 g
same,Activity,B16 [33],-0.4 g
same,Activity,B16 [34],-0.8 g
same,Activity,B16 [35],-0.9 g
same,AC50,Mus musculus [36],Non-toxic
same,AC50,Mus musculus [37],Non-toxic
same,AC50,Mus musculus [38],Non-toxic
